Experimental data taken from article PMC10097024, “Cytotoxic and Antibacterial Prenylated Acylphloroglucinols from Hypericum olympicum L” (Plants, 2023).

Tested on: procaspase 9
Experiment: Western blot, procaspase 9
Assay type: cell-based, human
Details: MDA-MB-231 and HL60/DOX
Experimental: Next, the samples were lysed on ice with a buffer containing 100 mM Tris–HCl at pH 8.0, 4% SDS, 20% glycerol, 1% Na3VO4, 200 mM dithiothreitol (DTT) (Sigma-Aldrich, St. Louis, MO, USA) and protease inhibitor (Roche, Basel, Switzerland). Then the cell lysate was boiled for 15 min and centrifuged at 13,000 rpm for 10 min at 4 °C. Before DTT addition, aliquot samples of 10 μL were taken from the lysates. Their protein concentrations were determined using a BCA protein assay kit (ThermoFisher Scientific, Waltham, MA, USA) after dilution 5× with H2O. Subsequently, the samples were subjected to denaturing SDS-PAGE electrophoresis and then transferred to PVDF membrane (Santa Cruz Biotechnology, USA). After this, the blots were fixed with blocking solution (5% w/v nonfat dried milk powder, dissolved in TBS) and incubated with specific primary antibodies: mouse procaspase-9 (sc-17784), mouse Bcl-2 (C-2, sc-7382) and mouse β-actin (sc-8432). The incubation was either overnight at 4 °C or for 150 min at room temperature. After washing, the membranes were incubated for 45 min with horseradish peroxidase conjugated secondary goat anti-mouse antibody (sc-2005) or mouse IgG kappa antibody (sc-516102) (Santa Cruz Biotechnology, Santa Cruz, CA, USA). […] This densitometry analysis of the blots was calculated by Quantity One software version 4.6.9 (Bio-Rad Laboratories, Hercules, CA, USA). […]

## CC(C)=CCC[C@]1(C)[C@@H](CC=C(C)C)C[C@H]2C(=O)[C@]1(C(=O)C(C)C)C(=O)C(CC=C(C)C)=C2O [Compound 5, (1S,5R,7S,8R)-4-hydroxy-1-isobutyryl-8-methyl-3,7-bis(3-methylbut-2-en-1-yl)-8-(4-methylpent-3-en-1-yl)bicyclo[3.3.1]non-3-ene-2,9-dione]
  degradation of the precursor caspase 9 (in words): not any observed decrease
